# Reference: patent US6737383B1, “Herbicidal oxadiazolidines” (priority 1999, dated 2004)
# Assays:
# surinam grass = assay: Test B pre/postemergence surinam grass; assay type: in vivo, Brachiaria decumbens
# How it was run: (§1)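 Herbicidal effect was estimated by eye on a ten-point control scale after plants spent twelve to sixteen days in a greenhouse following soil or foliar treatment. Foliar sprays targeted plants at one to four leaves; all doses were formulated in a non-phytotoxic solvent with surfactant.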
# corn = assay: Test B pre/postemergence corn; assay type: in vivo, Zea mays
# How it was run: as §1
# cocklebur = assay: Test B pre/postemergence cocklebur; assay type: in vivo, Xanthium strumarium
# How it was run: as §1
# crabgrass = assay: Test B pre/postemergence crabgrass; assay type: in vivo, Digitaria sanguinalis
# How it was run: as §1
# [1] = Postemergence, Rate 62 g/ha, scale 0 to 10, 0 is no effect, 10 is complete control
# [2] = Postemergence, Rate 125 g/ha, scale of 0 to 10 where 0 is no effect and 10 is complete control
# [3] = Postemergence, Rate 250 g/ha, scale of 0 to 10, 0 is no effect, 10 is complete control
# [4] = Postemergence, Rate 500 g/ha, scale of 0 to 10 where 0 is no effect and 10 is complete control
# [5] = Preemergence, Rate 62 g/ha, scale 0 to 10 (0 no effect, 10 complete control)
# [6] = Preemergence, Rate 125 g/ha, scale of 0 to 10 where 0 is no effect and 10 is complete control
# [7] = Preemergence, Rate 500 g/ha, scale of 0 to 10 where 0 is no effect and 10 is complete control
# [8] = Preemergence, Rate 250 g/ha, scale of 0 to 10 where 0 is no effect and 10 is complete control
# [9] = Rate 62 g/ha, Postemergence, scale of 0 to 10 where 0 is no effect and 10 is complete control
# [10] = Rate 125 g/ha, Postemergence, scale 0 to 10, 0 is no effect, 10 is complete control
# [11] = Postemergence, Rate 250 g/ha, scale 0 to 10
# [12] = Preemergence, Rate 250 g/ha, scale 0 to 10, 0 is no effect, 10 is complete control
# [13] = Preemergence, Rate 500 g/ha, scale 0 to 10, 0 is no effect, 10 is complete control
# [14] = Preemergence, Rate 62 g/ha, scale of 0 to 10 where 0 is no effect and 10 is complete control
# [15] = Rate 125 g/ha, Postemergence, scale 0 (no effect) to 10 (complete control)
# [16] = Rate 125 g/ha, Preemergence, scale of 0 to 10 where 0 is no effect and 10 is complete control
# [17] = Rate 125 g/ha, Postemergence, scale 0 to 10
# [18] = Rate 500 g/ha, Postemergence, scale 0 to 10
# [19] = Preemergence, Rate 31 g/ha, visual rating, scale 0 to 10 (0 no effect, 10 complete control)
# [20] = Preemergence, Rate 125 g/ha, 0 is no effect, 10 is complete control
# [21] = Rate 31 g/ha, Postemergence, scale 0 to 10
compound,measurement,setting,value
CC(C)N(C(=O)n1oc(=O)n(CC2=NOCCC2)c1=O)c1ccc(F)cc1F [Compound 602],"Plant response rating, B. signalgrass",surinam grass; [1],0
same,"Plant response rating, B. signalgrass",surinam grass; [2],2
same,B. signalgrass plant response rating,surinam grass; [3],5
same,"Plant response rating, B. signalgrass",surinam grass; [4],7
same,B. signalgrass plant response rating,surinam grass; [5],0
same,B. signalgrass plant response rating,surinam grass; [6],4
same,"B. signalgrass plant response rating (0 to 10 scale, 0 is no effect, 10 is complete control)","surinam grass; Preemergence, Rate 250 g/ha",7
same,B. signalgrass plant response rating,surinam grass; [7],7
same,"Plant response rating, Corn",corn; [1],0
same,"Plant response rating, Corn",corn; [2],0
same,Corn plant response rating,corn; [3],0
same,"Plant response rating, Corn",corn; [4],0
same,Corn plant response rating,corn; [5],0
same,Corn plant response rating,corn; [6],0
same,Corn plant response rating (0 to 10 scale),"corn; Preemergence, Rate 250 g/ha",0
same,"Plant response rating, Corn",corn; [7],2
same,"Plant response rating, Cocklebur",cocklebur; [1],0
same,"Plant response rating, Cocklebur",cocklebur; [2],0
same,Cocklebur plant response rating,cocklebur; [3],0
same,"Plant response rating, Cocklebur",cocklebur; [4],0
same,Cocklebur plant response rating,cocklebur; [5],0
same,Cocklebur plant response rating,cocklebur; [6],0
same,Cocklebur plant response rating (0 to 10 scale),"cocklebur; Preemergence, Rate 250 g/ha",0
same,"Plant response rating, Cocklebur",cocklebur; [7],0
same,"Plant response rating, Crabgrass",crabgrass; [1],2
same,"Plant response rating, Crabgrass",crabgrass; [2],4
same,Crabgrass plant response rating,crabgrass; [3],4
same,"Plant response rating, Crabgrass",crabgrass; [4],9
same,Crabgrass plant response rating,crabgrass; [5],7
same,Crabgrass plant response rating,crabgrass; [6],8
same,"Plant response rating, Crabgrass",crabgrass; [7],10
CC(C)N(C(=O)n1oc(=O)n(C[Si](C)(C)c2ccccc2)c1=O)c1ccc(Cl)cc1 [Compound 424],B. signalgrass plant response rating,"surinam grass; Postemergence, Rate 250 g/ha, scale 0 to 10, 0 no effect, 10 complete control",0
same,B. signalgrass plant response rating,surinam grass; [4],0
same,"Plant response rating, B. signalgrass",surinam grass; [5],0
same,"Plant response rating, B. signalgrass",surinam grass; [6],0
same,B. signalgrass plant response rating,surinam grass; [8],0
same,B. signalgrass plant response rating,surinam grass; [7],0
same,B. signalgrass plant response rating,surinam grass; [9],0
same,B. signalgrass plant response rating,surinam grass; [10],0
same,Corn plant response rating,corn; [11],0
same,Corn plant response rating,corn; [4],0
same,"Plant response rating, Corn",corn; [5],0
same,"Plant response rating, Corn",corn; [6],0
same,Corn plant response rating,corn; [12],0
same,Corn plant response rating,corn; [13],0
same,Corn plant response rating,corn; [9],0
same,Corn plant response rating,corn; [10],0
same,Cocklebur plant response rating,cocklebur; [11],0
same,Cocklebur plant response rating,cocklebur; [4],0
same,"Plant response rating, Cocklebur",cocklebur; [5],0
same,"Plant response rating, Cocklebur",cocklebur; [6],0
same,Cocklebur plant response rating,cocklebur; [12],0
same,Cocklebur plant response rating,cocklebur; [13],0
same,Cocklebur plant response rating,cocklebur; [9],0
same,Cocklebur plant response rating,cocklebur; [10],0
same,Crabgrass plant response rating,crabgrass; [11],0
same,Crabgrass plant response rating,crabgrass; [4],0
same,"Plant response rating, Crabgrass",crabgrass; [5],0
same,"Plant response rating, Crabgrass",crabgrass; [6],0
same,Crabgrass plant response rating,crabgrass; [12],0
same,Crabgrass plant response rating,crabgrass; [13],0
same,Crabgrass plant response rating,crabgrass; [9],0
same,Crabgrass plant response rating,crabgrass; [10],0
CC(C)N(C(=O)n1oc(=O)n(CC(=O)C(C)(C)C)c1=O)c1ccc(F)cc1 [Compound 216],B. signalgrass plant response rating,surinam grass; [14],0
same,B. signalgrass plant response rating,surinam grass; [12],4
same,"Plant response rating, B. signalgrass",surinam grass; [7],4
same,B. signalgrass plant response rating,surinam grass; [9],0
same,B. signalgrass plant response rating,surinam grass; [15],2
same,B. signalgrass plant response rating,surinam grass; [16],1
same,"Plant response rating (0 to 10; 0 is no effect, 10 is complete control), B. signalgrass","surinam grass; Rate 250 g/ha, Postemergence",5
same,B. signalgrass plant response rating,"surinam grass; Rate 500 g/ha, Postemergence, scale 0 to 10, 0 no effect, 10 complete control",8
same,Corn plant response rating,corn; [14],0
same,Corn plant response rating,corn; [8],0
same,"Plant response rating, Corn",corn; [7],0
same,Corn plant response rating,corn; [9],0
same,Corn plant response rating,corn; [17],0
same,Corn plant response rating,corn; [16],0
same,"Plant response rating (0 to 10; 0 is no effect, 10 is complete control), Corn","corn; Rate 250 g/ha, Postemergence",2
same,Corn plant response rating,corn; [18],3
same,Cocklebur plant response rating,cocklebur; [14],0
same,Cocklebur plant response rating,cocklebur; [8],0
same,"Plant response rating, Cocklebur",cocklebur; [7],0
same,Cocklebur plant response rating,cocklebur; [9],0
same,Cocklebur plant response rating,cocklebur; [17],0
same,Cocklebur plant response rating,cocklebur; [16],0
same,"Plant response rating (0 to 10; 0 is no effect, 10 is complete control), Cocklebur","cocklebur; Rate 250 g/ha, Postemergence",0
same,Cocklebur plant response rating,cocklebur; [18],3
same,Crabgrass plant response rating,crabgrass; [14],0
same,Crabgrass plant response rating,crabgrass; [8],8
same,"Plant response rating, Crabgrass",crabgrass; [7],8
same,Crabgrass plant response rating,crabgrass; [9],0
same,Crabgrass plant response rating,crabgrass; [17],2
same,Crabgrass plant response rating,crabgrass; [16],3
same,"Plant response rating (0 to 10; 0 is no effect, 10 is complete control), Crabgrass","crabgrass; Rate 250 g/ha, Postemergence",4
same,Crabgrass plant response rating,crabgrass; [18],7
Cc1ccccc1-n1c(=O)on(C(=O)N(c2ccc(F)cc2)C2CCC2)c1=O [Compound 200],B. signalgrass plant response rating,surinam grass; [19],0
same,B. signalgrass plant response rating,surinam grass; [14],0
same,B. signalgrass plant response rating (0 to 10 scale),surinam grass; [20],0
same,B. signalgrass plant response rating,surinam grass; [12],0
same,B. signalgrass plant response rating,surinam grass; [21],0
same,B. signalgrass plant response rating,surinam grass; [9],0
same,B. signalgrass plant response rating,surinam grass; [15],0
same,"Plant response rating, B. signalgrass","surinam grass; Rate 250 g/ha, Postemergence, scale 0 to 10, 0 is no effect, 10 is complete control",0
same,Corn plant response rating,corn; [19],0
same,Corn plant response rating,corn; [14],0
same,Corn plant response rating (0 to 10 scale),corn; [20],0
same,Corn plant response rating,corn; [12],0
same,Corn plant response rating,corn; [21],0
same,Corn plant response rating,corn; [9],0
same,Corn plant response rating,corn; [17],0
same,"Plant response rating (0 to 10; 0 is no effect, 10 is complete control), Corn","corn; Rate 250 g/ha, Postemergence",0
same,Cocklebur plant response rating,cocklebur; [19],0
same,Cocklebur plant response rating,cocklebur; [14],0
same,Cocklebur plant response rating (0 to 10 scale),cocklebur; [20],0
same,Cocklebur plant response rating,cocklebur; [12],0
same,Cocklebur plant response rating,cocklebur; [21],0
same,Cocklebur plant response rating,cocklebur; [9],0
same,Cocklebur plant response rating,cocklebur; [17],0
same,"Plant response rating (0 to 10; 0 is no effect, 10 is complete control), Cocklebur","cocklebur; Rate 250 g/ha, Postemergence",0
same,Crabgrass plant response rating,crabgrass; [19],0
same,Crabgrass plant response rating,crabgrass; [14],0
same,Crabgrass plant response rating (0 to 10 scale),crabgrass; [20],2
same,Crabgrass plant response rating,crabgrass; [12],6
same,Crabgrass plant response rating,crabgrass; [21],0
same,Crabgrass plant response rating,crabgrass; [9],0
same,Crabgrass plant response rating,crabgrass; [17],1
same,"Plant response rating (0 to 10; 0 is no effect, 10 is complete control), Crabgrass","crabgrass; Rate 250 g/ha, Postemergence",2
